How the values were obtained:
[1] = biological target: mGluR5; assay: functional mGluR5 antagonist assay; format: cell-based; conditions: for IC50 in functional HTS: identified from the functional HTS
[2] = biological target: mGluR5 (Rattus norvegicus, UniProt P31424); assay: functional mGluR5 antagonist assay; format: cell-based
mGluR5 (Rattus norvegicus, UniProt P31424), sequence (P31424 21-1203): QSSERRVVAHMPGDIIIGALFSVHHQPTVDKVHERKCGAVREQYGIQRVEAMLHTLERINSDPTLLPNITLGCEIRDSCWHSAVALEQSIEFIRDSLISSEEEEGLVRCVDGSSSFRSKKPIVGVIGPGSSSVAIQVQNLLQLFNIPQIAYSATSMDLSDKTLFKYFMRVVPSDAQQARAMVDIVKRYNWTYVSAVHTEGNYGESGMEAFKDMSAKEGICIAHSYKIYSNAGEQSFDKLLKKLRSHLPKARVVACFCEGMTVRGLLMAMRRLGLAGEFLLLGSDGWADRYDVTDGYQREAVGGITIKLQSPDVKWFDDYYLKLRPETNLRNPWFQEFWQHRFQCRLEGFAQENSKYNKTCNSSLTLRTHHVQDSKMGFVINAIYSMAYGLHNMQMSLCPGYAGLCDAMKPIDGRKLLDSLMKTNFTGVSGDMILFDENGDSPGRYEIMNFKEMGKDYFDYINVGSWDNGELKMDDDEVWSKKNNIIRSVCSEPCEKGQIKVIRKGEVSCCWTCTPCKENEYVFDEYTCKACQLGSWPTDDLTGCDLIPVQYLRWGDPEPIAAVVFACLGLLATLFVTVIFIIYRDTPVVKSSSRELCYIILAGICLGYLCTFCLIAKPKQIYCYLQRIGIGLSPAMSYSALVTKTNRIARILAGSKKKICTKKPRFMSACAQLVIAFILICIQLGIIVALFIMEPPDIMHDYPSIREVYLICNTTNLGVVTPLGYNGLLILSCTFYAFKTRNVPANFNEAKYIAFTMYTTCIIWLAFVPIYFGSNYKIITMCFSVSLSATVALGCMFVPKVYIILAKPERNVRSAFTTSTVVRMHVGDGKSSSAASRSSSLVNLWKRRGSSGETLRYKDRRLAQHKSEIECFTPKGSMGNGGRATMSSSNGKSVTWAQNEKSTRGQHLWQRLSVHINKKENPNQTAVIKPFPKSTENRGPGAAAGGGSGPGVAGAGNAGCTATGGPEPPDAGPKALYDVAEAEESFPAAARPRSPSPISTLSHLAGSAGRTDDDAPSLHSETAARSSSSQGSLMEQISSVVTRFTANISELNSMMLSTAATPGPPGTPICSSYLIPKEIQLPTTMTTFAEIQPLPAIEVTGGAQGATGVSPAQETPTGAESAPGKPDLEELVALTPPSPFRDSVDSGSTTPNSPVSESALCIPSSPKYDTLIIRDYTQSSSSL

mGluR5, sequence (P31424 21-1203): as above

`O=C(c1ccco1)N1CCCC2(CCCCC2)C1` [Cmpd 10] was tested, and the “IC50 in functional HTS” value [1] was “submicromolar”.

For `O=C(N1CCN(c2ccccn2)CC1)C12CC3CC(CC(C3)C1)C2` [Cmpd 11], the “IC50 in functional HTS” value [1] was “submicromolar”.

For `Cc1cc(C)c2c(N)c(C(=O)c3ccc(F)cc3)oc2n1` [Cmpd 12, (3-amino-4,6-dimethylfuro[2,3-b]pyridine-2-yl)(4-fluorophenyl)methanone], the IC50 ([2]; read-out: mGluR5 IC50, newly synthesized material) was 0.15 µM and the “% Glu Max” value ([2]; upon resynthesis) was 1.39%.

For `O=C(N1CCN(c2ccncc2)CC1)C12CC3CC(CC(C3)C1)C2` [Cmpd 20b], the “mGluR5 inhibitory activity” value [1] was “loses all mGluR5 inhibitory activity”.

— article PMC3177605 (Bioorganic & medicinal chemistry letters, 2009)
